# Assays:
# Pyrenophora graminea [1] = assay: inhibition zone test, treated barley seeds on agar containing the fungus; assay type: cell-based; settings: seed dressing, evaluated one week after placing on agar
# Method: (§1) The efficacy against seed-borne diseases can be illustrated by the inhibition zone test: single seeds treated with a seed dressing formulation comprising the compound to be tested e.g. with the seed dressing formulation according to Example 2 (hereinafter described) are placed on agar containing the seed-borne fungus. […] The size of the inhibition zone is evaluated one week after the seed has been placed on the agar. The activity is expressed as the concentration (in g per 100 kg seed) resulting in 90 % or more growth inhibition of the fungal mycelium.
# [2] = tested on: Pseudocercosporella herpotrichoides; settings: causal agent of eyespot of cereals; cited from earlier work
# Gerlachia nivalis = assay: inhibition zone test, treated wheat seeds on agar containing the fungus; assay type: cell-based; settings: seed dressing, evaluated one week after placing on agar
# Method: as §1
# Pyrenophora teres = assay: inhibition zone test, treated barley seeds on agar containing the fungus; assay type: cell-based; settings: seed dressing, evaluated one week after placing on agar
# Method: as §1
# Cochliobulus sativus = assay: as above; assay type: cell-based; settings: seed dressing, evaluated one week after placing on agar
# Method: as §1
# Septoria nodorum = assay: inhibition zone test, treated wheat seeds on agar containing the fungus; assay type: cell-based; settings: seed dressing, evaluated one week after placing on agar
# Method: as §1
# Pyrenophora graminea [3] = assay: Outdoor pot test, spring barley seed dressing; assay type: in vivo; settings: dosage 8 g a.i./100kg seed
# Method: (§2) Spring barley seed naturally infested by Pyrenophora graminea are treated with a seed dressing formulation according to Example 1 and sown in pots filled with a substrate equivalent to a sandy loam in a growth chamber at 10°C with 14-17 hours daylight. The determination of the fungal control involves a visual evaluation 60 days after said dressing and sowing.
# (§3) Analogous tests are run outdoors under naturally occurring wheather conditions with spring barley infected by Pyrenophora graminea and Ustilago nuda. […]
# Ustilago nuda = assay: Outdoor pot test, spring barley seed dressing; assay type: in vivo; settings: dosage 8 g a.i./100kg seed
# Method: as §2, §3
# Fusarium culmorum = assay: inhibition zone test, treated wheat seeds on agar containing the fungus; assay type: cell-based; settings: seed dressing, evaluated one week after placing on agar
# Method: as §1
# Pyrenophora graminea [4] = assay: Indoor pot test, spring barley seed dressing; assay type: in vivo; settings: dosage 8 g a.i./100kg seed, growth chamber 10°C, visual evaluation 60 days after dressing and sowing
# Method: as §2
Molecule,Concentration (g/100 kg Seed) providing ≧90% control (Pyrenophora graminea [1]) [g/100 kg Seed],fungicidal activity in in-vitro tests [2],Concentration (g/100 kg Seed) providing ≧90% control (Gerlachia nivalis) [g/100 kg Seed],Concentration (g/100 kg Seed) providing ≧90% control (Pyrenophora teres) [g/100 kg Seed],Concentration (g/100 kg Seed) providing ≧90% control (Cochliobulus sativus) [g/100 kg Seed],Concentration (g/100 kg Seed) providing ≧90% control (Septoria nodorum) [g/100 kg Seed],% Control outdoors P. gram. (Pyrenophora graminea [3]) [%],% Control outdoors U. nuda (Ustilago nuda) [%],Concentration (g/100 kg Seed) providing ≧90% control (Fusarium culmorum) [g/100 kg Seed],% Control indoors P. gram. (Pyrenophora graminea [4])
"CN(C/C=C/C#CC(C)(C)C)Cc1cccc2ccccc12 [CH₃, terbinafine]",<5,fungicidal activity,<5,–,–,–,–,–,–,–
"C=CCOC(Cn1ccnc1)c1ccc(Cl)cc1Cl (stereo not shown) [Standard A, Imazalil]",8,–,–,8,4,8,–,–,–,–
"CCCC(C)(C)C#CC=CCN(C)Cc1cccc2ccccc12 [nC₃H₇, N-(6,6-Dimethyl-2-nonen-4-inyl)-N-Methyl-1-naphthylmethylamine]",2,–,2,4,2,2,80,100,8,80-90%
CN(C/C=C/c1ccccc1)Cc1cccc2ccccc12 [naftifine],–,fungicidal activity,–,–,–,–,–,–,–,–
Guazatine,–,–,8,–,–,–,–,–,4,–
